Reference: US20030100540A1, “Identification of NSAID-regulated genes” (Vanderbilt University, priority 2001, published 2003)
“Also recorded” adds a separate entry of the source.

Assays:
[1] = test system: different types of cancer cell lines; conditions: cited from earlier work
NNK-induced lung cancer = NNK-induced lung cancer model; cited from earlier work
angiogenesis = conditions: cited from earlier work
prostate carcinoma cells = conditions: cited from earlier work
HCA-7 cells [2] = assay: Differential gene expression after NS-398 treatment (SSH, differential screening, Northern blotting); format: cell-based
Description: Cell culture. The HCA-7 cells, which are derived from a rectal carcinoma, were kindly provided by Dr. Susan Kirkland (ICRF, London, UK). Cells were cultured at 37° C. with 5% CO2 in McCoy's 5A medium containing penicillin, streptomycin, 10% FBS (Life Technologies, Inc., Grand Island, N.Y.). NS-398 and nimesulide (Cayman chemicals, Ann Arbor, Mich.), sulindac sulfide (Merck & Co., Rahway, N.J.) and SC-58125 (G.D. Searle Co., St. Louis, Mo.) were dissolved in DMSO prior to addition to cell culture medium. Experimental controls were treated with 0.1% DMSO.
mRNA isolation. Total cellular RNA was isolated using Tri-Reagent (Molecular Research Center, Inc., Cincinnati, Ohio) and polyadenylated RNA was isolated using a mRNA Purification Kit (Amersham Pharmacia Biotech, Inc., Piscataway, N.J.).
Suppression subtractive hybridization. SSH was performed with the PCR-Select™ cDNA Subtraction Kit (Clontech Laboratories Inc., Palo Alto, Calif.) as described by the manufacturer except for slight modifications of the PCR and hybridization conditions. Starting material consisted of 2 μg of mRNA from NS-398 treated HCA-7 cells and 2 μg of mRNA from control cells. After synthesis of the first and second cDNA strands, the cDNA was digested with Rsa I to obtain shorter, blunt-ended molecules. Then ligation of two different adapters to the cDNA fragments was performed separately. The adapter sequences were as follows: 5′-[…]-3′ (adapter 1-SEQ ID NO: 52) and 5′-[…]-3′ (adapter 2R-SEQ ID NO: 53). For the first round hybridization, the mixture of driver and tester cDNA were denatured at 98° C. for 1.5 min and then maintained at 68° C. for ˜10 h. For the second round hybridization, driver cDNA was denatured at 98° C. for 1.5 min and then added to the mixture of the two previous hybridization and allowed to incubate at 68° C. for ˜18 h.
After two rounds of hybridization, two rounds of PCR were performed to amplify the specific, differentially expressed cDNA fragments. All PCR reactions were performed using a PTC-100 thermal cycler (MJ Research, Inc. Watertown, Mass.). The primer used in first round is 5′-[…]-3′ (primer 1-SEQ ID NO: 54) and the primers used in second round were 5′-[…]-3′ (nested primer 1-SEQ ID NO: 55) and 5′-[…]-3′ (nested primer 2R -SEQ ID NO: 56). Cycling parameters are as follows: for the first round, 27 cycles of 94° C. for 30 s, 64° C. for 30 s and 71° C. for 1.5 min; for the second round, 15 cycles of 94° C. for 30 s, 68° C. for 30 s and 72° C. for 1.5 min.
To evaluate subtractive efficiency, the same amount of subtracted and unsubtracted secondary PCR products were applied as templates, and GAPDH primers were used to perform PCR. The PCR products were examined in a 2.0% agarose/EtBr gel to detect the abundance of GAPDH. After evaluation of the subtractive efficiency, the subtracted PCR products were cloned directly into the pCR2.1-TOPO vector (InVitrogen, Carlsbad, Calif.). Plates were incubated at 37° C. until small clones were visible and the blue/white staining could be clearly distinguished.
Differential screening. Differential screening was performed by using the PCR-Select™ Differential Screening Kit (Clontech) according to the users manual. After picking the recombinant clones from the subtractive library and identifying them by restriction digestion, the insert was PCR amplified in 20 μl volume reactions using nested PCR primer 1 and 2R. After amplification, 5 μl of the PCR product was denatured with 5 μl of 0.6 N NaOH and then 1.5 μl of each mixture was transferred to a nylon membrane. Each cDNA fragment was arrayed in duplicate in each blot and two identical blots were prepared for hybridization with different probes. The total secondary PCR amplified products from the forward and reverse SSH were used as probes. After washing, the membranes were exposed overnight to Kodak BioMax MR x-ray film (Eastman Kodak Company, Rochester, N.Y.) with and intensifying screen at −70° C.
Northern blotting. […]

HCA-7 cells [3] = assay: HCA-7 cell growth following treatment; format: cell-based; conditions: following treatment with NS-398
[4] = test system: human colon carcinoma cells; conditions: cited from earlier work
[5] = test system: AOM induced colon carcinogenesis; conditions: AOM induced colon carcinogenesis rat model; cited from earlier work
[6] = cited from earlier work
[7] = cited from earlier work; remark: listed apart in the source
[8] = 100 μM NS-398 for 4 days, down = decreased levels following treatment, -fold decrease
[9] = 100 μM NS-398 for 4 days, up = increased levels following treatment, -fold increase

## CS(=O)(=O)Nc1ccc([N+](=O)[O-])cc1OC1CCCCC1 [NS-398]
[1]
  Effect on tumor growth: suppress tumor growth
NNK-induced lung cancer
  Chemopreventive effects: chemopreventive effects
angiogenesis
  Anti-angiogenic effects: anti-angiogenic effects
Prostate carcinoma cells
  Induction of apoptosis: induce apoptosis
HCA-7 cells [2]; [8]
  Regulation by NS-398: Cyclin K (AF060515): down (2.1) fold
  Regulation by NS-398: KIAA0101 (D14657): down (2.7) fold
  Regulation by NS-398: Proliferation associated p100 protein (AF098158): down (2.2) fold
HCA-7 cells [2]; [9]
  Regulation by NS-398: Dynamin 2 (NM_004945): up (3.1) fold
  Regulation by NS-398: ENH, LIM protein (similar to rat protein kinase C-binding enigma) (NM_006457): up (3.0) fold
  Regulation by NS-398: FAT tumor suppressor (Drosophila) homolog (NM_005245): up (4.4) fold
  Regulation by NS-398: LIP.1 (LAR-interacting protein 1b) (U22816): up (3.4) fold
  Regulation by NS-398: PCDH7 (BH-Pcdh) (AB06757): up (26.0) fold
  Regulation by NS-398: Pdcd4 (Programmed cell death) (NM_011050): up (1.5) fold
HCA-7 cells [2]; gene named in the value
  Regulation of named genes by NS-398, stated in words: genes that were down-regulated by NS-398, one was designated as NRG-1; also recorded: Cyclin K was found to be down-regulated; also recorded: Pdcd4, Dynamin 2 and LIP.1 are all up-regulated; also recorded: ENH is a LIM protein whose levels are increased
HCA-7 cells [3]
  Inhibition of HCA-7 cell growth: significant inhibition
[4]
  Induction of apoptosis: induce apoptosis
[5]
  Chemopreventive effects: chemopreventive effects

## CC1=C(CC(=O)O)c2cc(F)ccc2/C1=C\c1ccc([S+](C)[O-])cc1 (stereo not drawn) [sulindac, (Z)-5-Fluoro-2-methyl-1-((4(methylsulfinyl)phenyl)methylene) 1H-indene-3-acetic acid]
[6]
  Drug absorbed after oral administration: about 90%
[6]; fasting patients, oral
  Time to peak plasma levels: about 2 hours
[7]; abdominal pain and nausea most frequent
  Mild gastrointestinal effects, share of patients: ~20%
[7]; human, in vivo
  Skin rash and pruritus, share of patients: 5%
